Data taken from patent US11629171B2, “Beta-hairpin peptidomimetics” (POLYPHOR AG, priority 2017, dated 2023).
≈ marks a conversion by molar mass, not a printed value. Where a SMILES comes first, the peptide text is derived from it. Bridges are numbered along the chain shown (N, C = ends). Roman numbers before positions name the chains, in order. [ ]: non-standard residue; d: D form. The star is where a group is joined. Tyrosinol = OC[C@H](Cc1ccc(O)cc1)N*; Tle = CC(C)(C)[C@H](N)C(=O)O; Hiv = CC(C)[C@H](O)C(=O)O; dDab = NCC[C@@H](N)C(=O)O; hSer = N[C@@H](CCO)C(=O)O; NHCH(CH2OH)2 = OCC(CO)N*; Dab = NCC[C@H](N)C(=O)O; Abu = CC[C@H](N)C(=O)O; Dap = NC[C@H](N)C(=O)O

Tests used:
Escherichia coli 926415 = type: cell-based; conditions: 926415
How it was run: (§1)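 Standard CLSI microdilution testing: bacterial suspensions standardized against 0.5 McFarland to about 10^6 CFU/mL in MH-II broth meet serially halved peptide concentrations in broth containing 0.002% polysorbate 80; incubation lasts 18-20 h at 35° C before the MIC is scored.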

[1] = test system: Acinetobacter baumannii 872842; type: cell-based; conditions: 872842
How it was run: as §1

[2] = test system: Klebsiella pneumoniae 968733; type: cell-based; conditions: 968733
How it was run: as §1

[3] = test system: Pseudomonas aeruginosa ATCC 27853; type: cell-based; conditions: ATCC 27853
How it was run: as §1

[4] = test system: Acinetobacter baumannii DSM 30008; type: cell-based; conditions: DSM 30008
How it was run: as §1

[5] = test system: Enterobacter cloacae 848840; type: cell-based; conditions: 848840
How it was run: as §1

[6] = test system: Escherichia coli ATCC 25922; type: cell-based; conditions: ATCC 25922
How it was run: as §1

[7] = test system: Klebsiella pneumoniae SSI #3010; type: cell-based; conditions: SSI #3010
How it was run: as §1

male ICR mice = assay: Tolerability in a mouse model (Maximum Tolerated Dose assay); type: in vivo; conditions: 2 × 30 mg/kg s.c. at a 12-hr interval, groups of 3
Description: The tolerability of the peptides was tested in a mouse model at Pharmacology Discovery Services Taiwan Ltd, Taipei, Taiwan. The peptides were administered subcutaneously (s.c.) at 30 mg/kg or 40 mg/kg, respectively; twice at a 12-hr interval, for assessment of possible adverse effects in the Maximum Tolerated Dose (MTD) assay in male ICR (Institute of Cancer Research) mice. The peptides were dissolved in 0.9% NaCl at the concentrations either of 6 or 8 mg/mL, respectively, based on the free base molecular weight. The pH values of dosing solutions were adjusted to 6.5-7.6 before s.c. administration. A dosing volume at 5 mL/kg and a concentration of 6 or 8 mg/mL, respectively, was applied. The fresh prepared stock solution were stored at 4° C. during the study. Male ICR mice weighing 23±3 g were provided by BioLasco Taiwan (under Charles River Laboratories Licensee). Animals were acclimated for 3 days prior to use and were confirmed to be in good health. The peptides were administered s.c. at 30 mg/kg or 40 mg/kg, respectively, twice at a 12-hr interval, to groups of 3 ICR male mice and observed for the presence of acute toxic symptoms (mortality, convulsions, tremors, muscle relaxation, sedation, etc.) and autonomic effects (diarrhea, salivation, lacrimation, vasodilation, piloerection, etc.) during the first 30 min. The peptides were administered again at a 12-hr (two total doses) interval, following the first dose. The animals were then observed again for the presence of acute toxic symptoms and autonomic effects during the first 30 min.

[8] = test system: human red blood cells (hRBC); assay: Hemolysis; type: cell-based; conditions: red cells of human, 1 h, 200
How it was run: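 Washed fresh human RBC (20% v/v) incubated with peptide at 200 μg/mL for 1 h at 37° C with shaking. Supernatant OD540 measured after dilution, blank corrected; percent hemolysis = OD540 peptide / OD540 of 2% Triton X-100 lysis × 100, PBS with 10% water as 0%.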

Structure (SMILES) | MIC (Escherichia coli 926415) | MIC [1] | MIC [2] | MIC [3] | MIC [4] | MIC [5] | MIC [6] | MIC [7] | Mortality and dose (male ICR mice) | Hemolysis at 200 μg/mL [8]
CC(C)C[C@@H]1NC(=O)[C@@H](CC(C)C)NC(=O)[C@H](CCN)NC(=O)[C@@H](NC(=O)[C@H](CCN)NC(=O)[C@@H](NC(=O)[C@H](CCN)NC(=O)CC[C@@H]2NC(=O)[C@H](CCN)NC(=O)[C@H](C(C)C)NC(=O)[C@@H](NC(=O)[C@@H](O)C(C)C)CSSC[C@@H](C(=O)N[C@H](CO)Cc3ccc(O)cc3)NC(=O)[C@H](C(C)(C)C)NC(=O)[C@H](CO)NC(=O)[C@H](Cc3c[nH]c4ccccc34)NC(=O)[C@H](CCO)NC(=O)[C@@H](CCN)NC2=O)[C@@H](C)O)CCNC(=O)[C@H]([C@@H](C)O)NC(=O)[C@H](CCN)NC(=O)[C@H](CCN)NC1=O [Ex. 92] (I: H-[Hiv]CV[Dab]E[dDab][hSer]WS[Tle]C-Tyrosinol / II: [Dab]T[Dab][Dab][Dab][dL]L[Dab][Dab]T; disulfide I:2-I:11; amide I:5-II:N; lactam II:4-II:C) | 0.0625 µg/mL (≈ 0.0261 µM) | 0.125 µg/mL (≈ 0.0521 µM) | 0.125 µg/mL (≈ 0.0521 µM) | 0.125 µg/mL (≈ 0.0521 µM) | 0.125 µg/mL (≈ 0.0521 µM) | 0.25 µg/mL (≈ 0.104 µM) | 0.0625 µg/mL (≈ 0.0261 µM) | 0.0625 µg/mL (≈ 0.0261 µM) | 0/3 died at 2 × 30 mg/kg | <1%
CC(=O)N[C@@H](Cc1ccc(O)cc1)C(=O)N[C@H]1CSSC[C@@H](C(=O)NC(CO)CO)NC(=O)[C@H](C(C)(C)C)NC(=O)[C@H](CO)NC(=O)[C@H](Cc2c[nH]c3ccccc23)NC(=O)[C@H](CCO)NC(=O)[C@@H](CCN)NC(=O)[C@H](CCC(=O)N[C@@H](CCN)C(=O)N[C@H](C(=O)N[C@@H](CCN)C(=O)N[C@H]2CCNC(=O)[C@H]([C@@H](C)O)NC(=O)[C@H](CCN)NC(=O)[C@H](CCN)NC(=O)[C@H](CC(C)C)NC(=O)[C@@H](CC(C)C)NC(=O)[C@H](CCN)NC2=O)[C@@H](C)O)NC(=O)[C@H](CCN)NC(=O)[C@H](C(C)C)NC1=O [Ex. 96] (I: Ac-YCV[Dab]E[dDab][hSer]WS[Tle]C-{NHCH(CH2OH)2} / II: [Dab]T[Dab][Dab][Dab][dL]L[Dab][Dab]T; disulfide I:2-I:11; amide I:5-II:N; lactam II:4-II:C) | 0.5 µg/mL (≈ 0.206 µM) | 0.5 µg/mL (≈ 0.206 µM) | 0.125 µg/mL (≈ 0.0515 µM) | 0.125 µg/mL (≈ 0.0515 µM) | 0.125 µg/mL (≈ 0.0515 µM) | 8 µg/mL (≈ 3.3 µM) | 0.0625 µg/mL (≈ 0.0257 µM) | 0.125 µg/mL (≈ 0.0515 µM) | 0/3 died at 2 × 30 mg/kg | <1%
CC(=O)N[C@H](C(=O)N[C@H]1CSSC[C@@H](C(=O)N[C@@H](CO)C(N)=O)NC(=O)[C@H](C(C)(C)C)NC(=O)[C@H](CO)NC(=O)[C@H](Cc2c[nH]c3ccccc23)NC(=O)[C@H](CO)NC(=O)[C@@H](CCN)NC(=O)[C@H](CCC(=O)N[C@@H](CCN)C(=O)N[C@H](C(=O)N[C@@H](CN)C(=O)N[C@H]2CCNC(=O)[C@H]([C@@H](C)O)NC(=O)[C@H](CCN)NC(=O)[C@H](CCN)NC(=O)[C@H](CC(C)C)NC(=O)[C@@H](CC(C)C)NC(=O)[C@H](CCN)NC2=O)[C@@H](C)O)NC(=O)[C@H](CCN)NC(=O)[C@H](Cc2ccc(O)cc2)NC1=O)C(C)C [Ex. 114] (I: Ac-VCY[Dab]E[dDab]SWS[Tle]CS-NH2 / II: [Dab]T[Dap][Dab][Dab][dL]L[Dab][Dab]T; disulfide I:2-I:11; amide I:5-II:N; lactam II:4-II:C) | 0.0625 µg/mL (≈ 0.0259 µM) | 0.03125 µg/mL (≈ 0.013 µM) | 0.0625 µg/mL (≈ 0.0259 µM) | 0.125 µg/mL (≈ 0.0518 µM) | 0.0625 µg/mL (≈ 0.0259 µM) | 0.0625 µg/mL (≈ 0.0259 µM) | 0.03125 µg/mL (≈ 0.013 µM) | 0.0625 µg/mL (≈ 0.0259 µM) | 0/3 died at 2 × 30 mg/kg | <1%
CC(C)C[C@@H]1NC(=O)[C@@H](CC(C)C)NC(=O)[C@H](CCN)NC(=O)[C@@H](NC(=O)[C@H](CN)NC(=O)[C@@H](NC(=O)[C@H](CCN)NC(=O)CC[C@@H]2NC(=O)[C@H](CCN)NC(=O)[C@H](Cc3ccc(O)cc3)NC(=O)[C@@H](NC(=O)[C@@H](O)C(C)C)CSSC[C@@H](C(=O)N[C@@H](CO)C(N)=O)NC(=O)[C@H](C(C)C)NC(=O)[C@H](CO)NC(=O)[C@H](Cc3c[nH]c4ccccc34)NC(=O)[C@H](CO)NC(=O)[C@@H](CCN)NC2=O)[C@@H](C)O)CCNC(=O)[C@H]([C@@H](C)O)NC(=O)[C@H](CCN)NC(=O)[C@H](CCN)NC1=O [Ex. 115] (I: H-[Hiv]CY[Dab]E[dDab]SWSVCS-NH2 / II: [Dab]T[Dap][Dab][Dab][dL]L[Dab][Dab]T; disulfide I:2-I:11; amide I:5-II:N; lactam II:4-II:C) | 0.125 µg/mL (≈ 0.053 µM) | 0.125 µg/mL (≈ 0.053 µM) | 0.25 µg/mL (≈ 0.106 µM) | 0.125 µg/mL (≈ 0.053 µM) | 0.0625 µg/mL (≈ 0.0265 µM) | 0.0625 µg/mL (≈ 0.0265 µM) | 0.0625 µg/mL (≈ 0.0265 µM) | 0.0625 µg/mL (≈ 0.0265 µM) | 0/3 died at 2 × 30 mg/kg | <1%
CC(=O)N[C@H](C(=O)N[C@H]1CSSC[C@@H](C(=O)NC(CO)CO)NC(=O)[C@H](C(C)C)NC(=O)[C@H](CO)NC(=O)[C@H](Cc2c[nH]c3ccccc23)NC(=O)[C@H](CO)NC(=O)[C@@H](CCN)NC(=O)[C@H](CCC(=O)N[C@@H](CCN)C(=O)N[C@H](C(=O)N[C@@H](CN)C(=O)N[C@H]2CCNC(=O)[C@H]([C@@H](C)O)NC(=O)[C@H](CCN)NC(=O)[C@H](CCN)NC(=O)[C@H](CC(C)C)NC(=O)[C@@H](CC(C)C)NC(=O)[C@H](CCN)NC2=O)[C@@H](C)O)NC(=O)[C@H](CCN)NC(=O)[C@H](Cc2ccc(O)cc2)NC1=O)C(C)C [Ex. 116] (I: Ac-VCY[Dab]E[dDab]SWSVC-{NHCH(CH2OH)2} / II: [Dab]T[Dap][Dab][Dab][dL]L[Dab][Dab]T; disulfide I:2-I:11; amide I:5-II:N; lactam II:4-II:C) | 0.125 µg/mL (≈ 0.0524 µM) | 0.0625 µg/mL (≈ 0.0262 µM) | 0.25 µg/mL (≈ 0.105 µM) | 0.125 µg/mL (≈ 0.0524 µM) | 0.03125 µg/mL (≈ 0.0131 µM) | 0.03125 µg/mL (≈ 0.0131 µM) | 0.03125 µg/mL (≈ 0.0131 µM) | 0.03125 µg/mL (≈ 0.0131 µM) | 0/3 died at 2 × 30 mg/kg | <1%
CC[C@@H]1NC(=O)[C@@H](CC(C)C)NC(=O)[C@H](CCN)NC(=O)[C@@H](NC(=O)[C@H](CN)NC(=O)[C@@H](NC(=O)[C@H](CCN)NC(=O)CC[C@@H]2NC(=O)[C@H](CCN)NC(=O)[C@H](Cc3ccc(O)cc3)NC(=O)[C@@H](NC(=O)[C@@H](NC(C)=O)C(C)C)CSSC[C@@H](C(=O)N[C@@H](CO)C(N)=O)NC(=O)[C@H](C(C)C)NC(=O)[C@H](CO)NC(=O)[C@H](Cc3c[nH]c4ccccc34)NC(=O)[C@H](CO)NC(=O)[C@@H](CCN)NC2=O)[C@@H](C)O)CCNC(=O)[C@H]([C@@H](C)O)NC(=O)[C@H](CCN)NC(=O)[C@H](CCN)NC1=O [Ex. 137] (I: Ac-VCY[Dab]E[dDab]SWSVCS-NH2 / II: [Dab]T[Dap][Dab][Dab][dL][Abu][Dab][Dab]T; disulfide I:2-I:11; amide I:5-II:N; lactam II:4-II:C) | 0.125 µg/mL (≈ 0.0527 µM) | 0.125 µg/mL (≈ 0.0527 µM) | 0.125 µg/mL (≈ 0.0527 µM) | 0.125 µg/mL (≈ 0.0527 µM) | 0.0625 µg/mL (≈ 0.0264 µM) | 0.0625 µg/mL (≈ 0.0264 µM) | 0.03125 µg/mL (≈ 0.0132 µM) | 0.0625 µg/mL (≈ 0.0264 µM) | 0/3 died at 2 × 30 mg/kg | 1%
